Reference: US20170037480A1, “HSF1 IN TUMOR STROMA” (Whitehead Institute for Biomedical Research, priority 2014, published 2017)
“Also recorded” adds a separate entry of the source.

Columns and labels:
[1] = system: D2A1 cells co-cultured with Hsf1 null MEFs; assay: Co-culture of dsRed D2A1 cancer cells on Hsf1 null MEF feeder layer, cancer cells counted by flow cytometry; assay type: cell-based, mouse; conditions: for cancer cell growth (percentage of cancer cells) in co-culture with Hsf1 null MEFs on addition of recombinant proteins: 10 ng/ml TGFβ1, 100 ng/ml SDF1, added once, 96 h
Experimental: (§1) (A) The relative expression of Sdf1, Tgfβ1 and Tgfβ2 in WT or Hsf1 null immortalized MEFs was measured by quantitative PCR. mRNA expression levels were normalized to the house keeping gene Gapdh. The mean of 3 independent experiments is shown. Error bars, SEM. *p<0.05, **p<0.01. (B-C) WT or Hsf1 null immortalized MEFs were plated and treated with mitomycin C as in FIG. 3A. D2A1 cells marked with dsRed were then seeded on top of the MEFs in the presence or absence of 10 ng/ml TGFβ1 and 100 ng/ml SDF1. After 96 h, cells were either visualized by fluorescent microscopy (B) or trypsinized and quantitated by flow cytometry (C). The percentage of cancer cells in co-culture is presented. The experiment was repeated 3 times, in triplicate. Representative results of one experiment are shown as the mean+/−SEM. *p<0.05. (D) Immortalized WT or Hsf1 null mitomycin-treated MEFs were pretreated, or not, with LY2109761 for 30 minutes before D2A1 cells marked with dsRed were seeded on top. Cultures were continued for 72 h, with daily supplementation of LY2109761 (or not, as control), and then analyzed as in (C). The experiment was repeated 3 times, in triplicates. Results are expressed as the mean relative number of cancer cells, normalized to the non-drug treated co-cultures with WT MEFs. […] (E) Immortalized WT MEFs stably expressing shRNA hairpins targeting Smad2 (shSmad2) or GFP (shGFP) were co-cultured with D2A1 cells, treated and analyzed as in (C). […] IPs were analyzed by qPCR with primers targeting potential heat shock elements in mouse Sdf1 and Tgfβ2. […]
Figs. S4A-S4F show additional results. […] The relative expression of Sdf1, Tgfβ1 and Tgfβ2 in three separate sets of WT or Hsf1 null MEFs (each derived from a different pregnancy) was measured by quantitative PCR. mRNA expression levels were normalized to the house keeping gene Gapdh. […] After 96 h, cells were trypsinized and quantitated by flow cytometry. […] Relative cell number was measured by luminescence using Cell-Titer Glo reagent (Promega). […] After growth for 96 h, cells were trypsinized and quantitated by flow cytometry. […]

[2] = system: D2A1 cells co-cultured with WT MEFs; assay: Co-culture of dsRed D2A1 cancer cells on WT MEF feeder layer, cancer cells counted by flow cytometry; assay type: cell-based, mouse; conditions: LY2109761, MEFs pretreated 30 minutes, 72 h, daily supplementation; p=0.008
Experimental: as §1, with “(D) Immortalized WT or Hsf1 null mitomycin-treated MEFs were pretreated, or not, with LY2109761 for 30 minutes before D2A1 cells marked with dsRed were seeded on top.” left out, “The experiment was repeated 3 times, in triplicates.” left out

D2A1 cancer cells = assay: Growth of D2A1 cancer cells grown alone (no MEFs), Cell-Titer Glo luminescence; assay type: cell-based, mouse; conditions: LY2109761 1 μM, 72 h, daily re-addition of inhibitor
Experimental: Figs. S4A-S4F show additional results. (A) Tgfβ and Sdf1 mRNA levels are regulated by HSF1 in primary MEFs. The relative expression of Sdf1, Tgfβ1 and Tgfβ2 in three separate sets of WT or Hsf1 null MEFs (each derived from a different pregnancy) was measured by quantitative PCR. mRNA expression levels were normalized to the house keeping gene Gapdh. The experiment was repeated 3 times (each time with a different set of primary MEFs), in triplicate. Representative results are shown as the mean+/−SEM. *p<0.05, **p<0.01, ***p<0.001. […] WT or Hsf1 null immortalized MEFs were plated and treated with mitomycin C. D2A1 cells marked with dsRed were then seeded on top of the MEFs in the presence or absence of 10 ng/ml TGFβ1, 100 ng/ml SDF1 or a combination of both. After 96 h, cells were trypsinized and quantitated by flow cytometry. The percentage of cancer cells in the co-culture is presented. The experiment was repeated 3 times, in triplicate. […] Relative cell number was measured by luminescence using Cell-Titer Glo reagent (Promega). […] After growth for 96 h, cells were trypsinized and quantitated by flow cytometry. […] Relative levels of SMAD2 in WT immortalized MEFs (left two panels) or D2A1 cells (right two panels) were measured by immunoblotting lysates prepared from cells stably expressing shRNA hairpins targeting Smad2 (shSmad2) or GFP (shGFP). […]

HSF1 [3] = assay: Effect of RHT on expression of HSF1 stromal signature genes in Hsf1+/+ versus Hsf1-/- MEFs; assay type: cell-based, mouse; conditions: reduced in treated Hsf1+/+ MEFs but not in Hsf1-/- MEFs
From the text: A combination of experimental and bioinformatic approaches was used to define a set of HSF1-regulated genes of particular use for assessing the level of HSF1 activity in tumor-associated stromal cells for purposes of cancer classification, diagnosis, prognosis, treatment-specific prediction, and treatment selection. The pipeline started with the Group 1 and Group 4 gene lists described above. As described above, these 871 genes have increased expression in Hsf1+/+ versus Hsf1−/−MEFs. These 871 genes map to 562 genes in the Finak, G. et al. dataset discussed above (GEO (GSE9014)). […] Its structure is depicted below.
The 562 genes that mapped to genes in the Finak dataset were tested to determine the effect of RHT on their expression in Hsf1+/+MEFs versus […] MEFs. […] A filter was applied to these genes to identify those that were differentially expressed in tumors in the Finak dataset with poor versus good outcomes.

HSF1 [4] = conditions: recent chemical screening effort; cited from earlier work

c1ccc(-c2nn3c(c2-c2ccnc4cc(OCCN5CCOCC5)ccc24)CCC3)nc1 [LY2109761]
growth of D2A1 cancer cells in co-culture with Hsf1 null MEFs (relative number of cancer cells) ([1]; LY2109761, MEFs pretreated 30 minutes, 72 h, daily supplementation, p=0.1): A smaller effect, that did not reach statistical significance
growth of D2A1 cancer cells in co-culture with WT MEFs (relative number of cancer cells) [2]: significantly reduce their growth
growth or survival of D2A1 cancer cells grown alone (relative cell number) (D2A1 cancer cells): did not affect; also recorded: does not directly inhibit

COc1ccc([C@@]23Oc4cc(OC)cc(OC)c4[C@]2(O)[C@H](O)[C@H](C(=O)N(C)OC)[C@H]3c2ccccc2)cc1 [Rohinitib]
number of genes (of 562 tested) whose expression was suppressed in an HSF1-dependent fashion (HSF1 [3]): 95
inhibition of HSF1 activity (HSF1 [4]): potent inhibitor

SDF1: purified recombinant protein (R&D systems, 460-SD-010)
cancer cell growth (percentage of cancer cells) in co-culture with Hsf1 null MEFs on addition of recombinant proteins [1]: Partial effects, that did not reach statistical significance

TGFβ1: purified recombinant protein (R&D systems, 240-B-002)
cancer cell growth (percentage of cancer cells) in co-culture with Hsf1 null MEFs on addition of recombinant proteins [1]: Partial effects, that did not reach statistical significance
